Here are results for 17 molecules from US10968178B2, “IP6K inhibitors” (TAKEDA PHARMACEUTICAL COMPANY LIMITED, priority 2017, dated 2021).

Assay type in all cases: biochemical
For one experiment, the target named is T1, human IP6K2 (Homo sapiens, UniProt Q9UHH9).
T1 construct: human IP6K2 (1-426) gene; GST; made in house; host or cells: Sf-9 insect cells
T1 sequence (Q9UHH9 1-426): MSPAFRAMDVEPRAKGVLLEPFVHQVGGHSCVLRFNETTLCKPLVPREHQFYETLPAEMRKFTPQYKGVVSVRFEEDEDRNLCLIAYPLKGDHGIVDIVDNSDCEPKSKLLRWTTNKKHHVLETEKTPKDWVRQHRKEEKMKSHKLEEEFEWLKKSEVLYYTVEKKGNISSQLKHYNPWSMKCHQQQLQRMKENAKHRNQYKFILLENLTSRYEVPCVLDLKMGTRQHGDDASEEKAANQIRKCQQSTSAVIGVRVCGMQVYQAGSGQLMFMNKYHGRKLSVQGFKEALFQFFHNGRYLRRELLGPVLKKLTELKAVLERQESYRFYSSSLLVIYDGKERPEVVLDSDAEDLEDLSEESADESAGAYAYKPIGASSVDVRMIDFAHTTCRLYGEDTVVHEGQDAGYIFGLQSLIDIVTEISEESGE
Nature of the experiment: IP6K enzyme inhibitory assay (ADP-Glo Kinase Assay), human IP6K2. Conditions: compound concentration 0.1 μM; read-out: ADP-Glo method inhibitory rate (%) human IP6K2. Summed up:
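The inhibitory activity against human IP6K2 was measured with Promega's ADP-Glo Kinase Assay in 384 well plates. Test compound, diluted in assay buffer (20 mM HEPES (pH 7.5), 6 mM MgCl2, 0.01% Tween-20, 1 mM DTT), was added at 2 μL. Adding 2 μL of diluted enzyme started the reaction, which ran for 60 min at room temperature. Next, 3 μL ADP-Glo solution (30 min) and 6 μL Kinase-Detection solution (60 min) were added, and luminescence was read on an Envision plate reader.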
For orientation: ADP-Glo first removes unused ATP, then detects ADP through luciferase.

The target in a further experiment is T2, human IP6K1 (Homo sapiens, UniProt Q92551).
T2 construct: human IP6K1 (1-441) gene; GST; made in house; host or cells: Sf-9 insect cells
As to the kind of experiment: IP6K enzyme inhibitory assay (ADP-Glo Kinase Assay), human IP6K1. Conditions: compound concentration 0.1 μM; read-out: ADP-Glo method inhibitory rate (%) human IP6K1. In a few lines:
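Inhibition of human IP6K1 was determined with Promega's ADP-Glo Kinase Assay in 384 well plates. Test compound diluted in assay buffer (20 mM HEPES (pH 7.5), 6 mM MgCl2, 0.01% Tween-20, 1 mM DTT) was added at 2 μL, then 2 μL of enzyme started the reaction for 60 min at room temperature. Next came 3 μL ADP-Glo solution for 30 min and 6 μL Kinase-Detection solution for 60 min. Luminescence was read on an Envision plate reader.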

The target of the next experiment is T3, human IP6K3 (Homo sapiens, UniProt Q96PC2).
T3 construct: human IP6K3 (1-410) gene; made in house; host or cells: BL21 (DE3) Escherichia coli
T3 sequence (Q96PC2 1-410): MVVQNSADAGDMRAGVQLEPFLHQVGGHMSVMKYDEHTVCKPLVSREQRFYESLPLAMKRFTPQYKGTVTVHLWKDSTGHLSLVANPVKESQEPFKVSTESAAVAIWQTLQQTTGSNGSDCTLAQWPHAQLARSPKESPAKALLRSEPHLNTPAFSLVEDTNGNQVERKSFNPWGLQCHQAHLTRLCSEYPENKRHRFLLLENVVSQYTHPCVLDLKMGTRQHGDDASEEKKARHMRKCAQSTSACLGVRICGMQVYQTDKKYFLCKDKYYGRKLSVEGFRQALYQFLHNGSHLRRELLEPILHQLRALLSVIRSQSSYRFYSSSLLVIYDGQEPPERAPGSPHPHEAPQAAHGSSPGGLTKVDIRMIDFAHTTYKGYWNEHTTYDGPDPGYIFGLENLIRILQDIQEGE
Nature of the experiment: IP6K enzyme inhibitory assay (ADP-Glo Kinase Assay), human IP6K3. The conditions noted are these: compound concentration 0.1 μM; read-out: ADP-Glo method inhibitory rate (%) human IP6K3. Summed up: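 Recombinant human IP6K (IP6K3 residues 1-410, E. coli, Ni-NTA purified) incubated with compound in 20 mM HEPES pH 7.5, 6 mM MgCl2, 0.01% Tween-20, 1 mM DTT for 60 min at room temperature. ADP formed read as luminescence by ADP-Glo.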

T2 sequence (Q92551 whole entry): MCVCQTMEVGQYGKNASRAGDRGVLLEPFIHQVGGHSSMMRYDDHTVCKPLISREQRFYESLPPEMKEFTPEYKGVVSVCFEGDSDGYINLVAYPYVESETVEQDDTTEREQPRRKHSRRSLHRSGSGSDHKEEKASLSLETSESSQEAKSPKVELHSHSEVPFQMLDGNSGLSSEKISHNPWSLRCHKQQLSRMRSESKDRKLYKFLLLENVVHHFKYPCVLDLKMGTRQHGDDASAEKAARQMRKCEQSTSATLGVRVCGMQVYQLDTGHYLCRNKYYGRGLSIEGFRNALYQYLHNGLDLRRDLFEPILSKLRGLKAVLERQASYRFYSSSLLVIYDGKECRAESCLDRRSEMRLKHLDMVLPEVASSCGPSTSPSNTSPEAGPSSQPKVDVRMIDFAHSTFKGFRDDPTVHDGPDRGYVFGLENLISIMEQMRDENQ

Consider `O=C(O)c1ccc2c(n1)[C@]1(CC[C@H](Oc3ccccc3Cl)CC1)C(=O)N2` [Example 85, (1s,4s)-4-(2-chlorophenoxy)-2′-oxo-1′,2′-dihydrospiro[cyclohexane-1,3′-pyrrolo[3,2-b]pyridine]-5′-carboxylic acid], for which the inhibition at 0.1 µM at human IP6K2 turned out to be 71%; at human IP6K1 it was 81%; on human IP6K3, 95%.

For `O=C(O)c1ccc2c(n1)[C@]1(CC[C@H](Oc3c(F)cc(Cl)cc3F)CC1)C(=O)N2` [Example 86, (1s,4s)-4-(4-chloro-2,6-difluorophenoxy)-2′-oxo-1′,2′-dihydrospiro[cyclohexane-1,3′-pyrrolo[3,2-b]pyridine]-5′-carboxylic acid], the results for the inhibition at 0.1 µM on human IP6K2, on human IP6K1 and at human IP6K3 were 50%, 55% and 80%, respectively.

On to `O=C(O)c1ccc2c(c1)[C@]1(CC[C@H](Oc3ncc(Cl)cc3F)CC1)C(=O)N2` [Example 87, (1s,4s)-4-((5-chloro-3-fluoropyridin-2-yl)oxy)-2′-oxo-1′,2′-dihydrospiro[cyclohexane-1,3′-indole]-5′-carboxylic acid], for which the inhibition at 0.1 µM on human IP6K2 amounted to 102%; on human IP6K1, 107%; at human IP6K3, 102%.

`O=C(O)c1ccc2c(n1)[C@]1(CC[C@H](Oc3ccc(Cl)cc3)CC1)C(=O)N2` [Example 88, (1s,4s)-4-(4-chlorophenoxy)-2′-oxo-1′,2′-dihydrospiro[cyclohexane-1,3′-pyrrolo[3,2-b]pyridine]-5′-carboxylic acid]: the values for the inhibition at 0.1 µM on human IP6K2, at human IP6K1 and on human IP6K3 were 97%, 101% and 97%, respectively.

In the case of `Cc1cc(Cl)cc(C)c1O[C@H]1CC[C@]2(CC1)C(=O)Nc1ccc(C(=O)O)nc12` [Example 89, (1s,4s)-4-(4-chloro-2,6-dimethylphenoxy)-2′-oxo-1′,2′-dihydrospiro[cyclohexane-1,3′-pyrrolo[3,2-b]pyridine]-5′-carboxylic acid], the inhibition at 0.1 µM at human IP6K2 amounted to 14%; at human IP6K1, 9%; on human IP6K3, 26%.

For the molecule `O=C(O)c1ccc2c(n1)[C@]1(CC[C@@H](Oc3ccccc3Cl)CC1)C(=O)N2` [Example 90, (1r,4r)-4-(2-chlorophenoxy)-2′-oxo-1′,2′-dihydrospiro[cyclohexane-1,3′-pyrrolo[3,2-b]pyridine]-5′-carboxylic acid], the inhibition at 0.1 µM turned out to be 47% at human IP6K2, 49% on human IP6K1 and 61% on human IP6K3.

In the case of `O=C(O)c1ccc2c(n1)[C@]1(CC[C@@H](Oc3ccc(F)cc3F)CC1)C(=O)N2` [Example 91, (1r,4r)-4-(2,4-difluorophenoxy)-2′-oxo-1′,2′-dihydrospiro[cyclohexane-1,3′-pyrrolo[3,2-b]pyridine]-5′-carboxylic acid], the inhibition at 0.1 µM on human IP6K2 was determined as 60%; on human IP6K1, 69%; at human IP6K3, 79%.

Take `O=C(O)c1ccc2c(n1)[C@]1(CC[C@@H](Oc3ccc(Cl)cc3)CC1)C(=O)N2` [Example 92, (1r,4r)-4-(4-chlorophenoxy)-2′-oxo-1′,2′-dihydrospiro[cyclohexane-1,3′-pyrrolo[3,2-b]pyridine]-5′-carboxylic acid]: the results for the inhibition at 0.1 µM at human IP6K2, at human IP6K1 and on human IP6K3 were 92%, 97% and 98%, respectively.

In the case of `O=C(O)c1ccc2c(n1)[C@]1(CC[C@@H](Oc3c(F)cc(Cl)cc3F)CC1)C(=O)N2` [Example 93, (1r,4r)-4-(4-chloro-2,6-difluorophenoxy)-2′-oxo-1′,2′-dihydrospiro[cyclohexane-1,3′-pyrrolo[3,2-b]pyridine]-5′-carboxylic acid], the inhibition at 0.1 µM on human IP6K2 is 96%; on human IP6K1, 92%; on human IP6K3, 101%.

On to `Cc1cc(Cl)cc(C)c1O[C@H]1CC[C@@]2(CC1)C(=O)Nc1ccc(C(=O)O)nc12` [Example 94, (1r,4r)-4-(4-chloro-2,6-dimethylphenoxy)-2′-oxo-1′,2′-dihydrospiro[cyclohexane-1,3′-pyrrolo[3,2-b]pyridine]-5′-carboxylic acid], for which the inhibition at 0.1 µM at human IP6K2 is 97%; on human IP6K1 it was 91%; on human IP6K3, 101%.

As for `O=C(O)c1ccc2c(n1)[C@]1(CC[C@@H](Oc3ccc(Cl)cc3C(F)(F)F)CC1)C(=O)N2` [Example 95, (1r,4r)-4-(4-chloro-2-(trifluoromethyl)phenoxy)-2′-oxo-1′,2′-dihydrospiro[cyclohexane-1,3′-pyrrolo[3,2-b]pyridine]-5′-carboxylic acid], the values for the inhibition at 0.1 µM on human IP6K2, at human IP6K1 and on human IP6K3 were 91%, 88% and 96%, respectively.

Turning to `O=C(O)c1ccc2c(n1)[C@]1(CC[C@H](Oc3ccc(Cl)cc3C(F)(F)F)CC1)C(=O)N2` [Example 96, (1s,4s)-4-(4-chloro-2-(trifluoromethyl)phenoxy)-2′-oxo-1′,2′-dihydrospiro[cyclohexane-1,3′-pyrrolo[3,2-b]pyridine]-5′-carboxylic acid], the inhibition at 0.1 µM was determined as 99% on human IP6K2, 95% at human IP6K1 and 101% on human IP6K3.

For `O=C(O)c1ccc2c(n1)[C@]1(CC[C@@H](Oc3ncc(Cl)cc3C(F)(F)F)CC1)C(=O)N2` [Example 99, (1r,4r)-4-((5-chloro-3-(trifluoromethyl)pyridin-2-yl)oxy)-2′-oxo-1′,2′-dihydrospiro[cyclohexane-1,3′-pyrrolo[3,2-b]pyridine]-5′-carboxylic acid], the results for the inhibition at 0.1 µM at human IP6K2, at human IP6K1 and on human IP6K3 were 64%, 51% and 83%, respectively.

Take `O=C(O)c1ccc2c(n1)[C@]1(CC[C@H](Oc3ncc(Cl)cc3F)CC1)C(=O)N2` [Example 100, (1s,4s)-4-((5-chloro-3-fluoropyridin-2-yl)oxy)-2′-oxo-1′,2′-dihydrospiro[cyclohexane-1,3′-pyrrolo[3,2-b]pyridine]-5′-carboxylic acid]: the inhibition at 0.1 µM stood at 98% at human IP6K2, 76% on human IP6K1 and 97% on human IP6K3.

As for `O=C(O)c1ccc2c(n1)[C@]1(CC[C@H](Oc3ccc(Cl)cc3Cl)CC1)C(=O)N2` [Example 101, (1s,4s)-4-(2,4-dichlorophenoxy)-2′-oxo-1′,2′-dihydrospiro[cyclohexane-1,3′-pyrrolo[3,2-b]pyridine]-5′-carboxylic acid], the inhibition at 0.1 µM at human IP6K2 came out at 100%; at human IP6K1 it was 104%; on human IP6K3, 98%.

`O=C(O)c1ccc2c(n1)[C@]1(CC[C@@H](Oc3ccc(Cl)cc3Cl)CC1)C(=O)N2` [Example 102, (1r,4r)-4-(2,4-dichlorophenoxy)-2′-oxo-1′,2′-dihydrospiro[cyclohexane-1,3′-pyrrolo[3,2-b]pyridine]-5′-carboxylic acid]: the inhibition at 0.1 µM at human IP6K2 stood at 94%; on human IP6K1, 105%; on human IP6K3, 97%.

Turning to `Cc1cc(C(F)(F)F)cnc1O[C@H]1CC[C@]2(CC1)C(=O)Nc1ccc(C(=O)O)nc12` [Example 103, (1s,4s)-4-((3-methyl-5-(trifluoromethyl)pyridin-2-yl)oxy)-2′-oxo-1′,2′-dihydrospiro[cyclohexane-1,3′-pyrrolo[3,2-b]pyridine]-5′-carboxylic acid], the results for the inhibition at 0.1 µM at human IP6K2, on human IP6K1 and on human IP6K3 were 99%, 98% and 99%, respectively.
